From the supplement of paper PMC11061612 come the findings set out here.

Test in all cases: Bliss excess, mean over the matrix (fraction); higher = more synergy
In assay [1] the test system is BE-13 (T-Lymphoblastic Leukemia). The essentials:
(§1)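 Cell lines in DMEM/F12 or RPMI with 10% FBS were plated in 1536-well plates, held 24 hours at 37°C, 5% CO2, then given two-drug dose matrices for 72 hours (DMSO typically 0.2%). Viability was read by CellTiter-Glo 2.0 luminescence and scaled as inhibition from 0 (vehicle wells) to 1 (blank wells). Combination Emax is the second-highest inhibition in the matrix; Bliss excess is observed combination effect minus expected EA + EB − EA·EB, EA and EB being single-agent effects.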

Assay [2] has as its system SNU-449 (Hepatocellular Carcinoma). A digest of the protocol: as §1
Assay [3] concerns HuCCT1 (Biliary Tract Carcinoma). A digest of the protocol: as §1
The subject of a further assay is LOXIMVI (Melanoma). The essentials: as §1
For assay [4], the system named is SAS (Oral Cavity Carcinoma). A digest of the protocol: as §1
Assay [5] has as its system HH (T-Cell Non-Hodgkin's Lymphoma). The essentials:
as §1

The test system of assay [6] is SW1710 (Bladder Carcinoma). A digest of the protocol: as §1
For assay [7], the system named is LNZTA3WT4 (Low Grade Glioma). A digest of the protocol:
as §1

The test system of assay [8] is SNU-16 (Gastric Carcinoma). A digest of the protocol: as §1
In the next assay the test system is MPP-89 (Mesothelioma). The essentials:
as §1

For the next assay, the system named is GAMG (Glioblastoma). The essentials:
as §1

In assay [9] the test system is OV-56 (Ovarian Carcinoma). The essentials:
as §1

The test system of assay [10] is L-428 (Hodgkin's Lymphoma). A digest of the protocol:
as §1

In assay [11] the test system is KMRC-20 (Kidney Carcinoma). A digest of the protocol:
as §1

Assay [12] concerns HeLa (Cervical Carcinoma). The essentials: as §1
Assay [13] deals with FTC-133 (Thyroid Gland Carcinoma). A digest of the protocol:
as §1

Assay [14] has as its system NUGC-4 (Gastric Carcinoma). The essentials: as §1
Assay [15] relates to BFTC-909 (Kidney Carcinoma). A digest of the protocol: as §1
Assay [16] concerns SW1573 (Lung Adenocarcinoma). The essentials: as §1

For `C[C@@H]1COCCN1c1cc(C2([S@](C)(=N)=O)CC2)nc(-c2ccnc3[nH]ccc23)n1` [AZD6738] + Nc1ccn([C@@H]2O[C@H](CO)[C@@H](O)C2(F)F)c(=O)n1 [Gemcitabine] (first compound max 10 µM, 7x7, partner max 0.3 µM), the Bliss excess in assay [1] is 0.153; in assay [2], 0.0623; in assay [3], 0.0144; in the assay with LOXIMVI (Melanoma), 0.0221; in assay [4], 0.0762; in [5] it was 0.0778. For the same compound, the Bliss excess in assay [6] came out at 0.0769; in assay [7], 0.186; in assay [8], 0.0098; in the assay on MPP-89 (Mesothelioma), 0.0348; with GAMG (Glioblastoma), 0.0615.

Turning to `O=C(c1cc(Cc2n[nH]c(=O)c3ccccc23)ccc1F)N1CCN(C(=O)C2CC2)CC1` [Olaparib] + COc1nnc2ccc(N3CCC(c4ccc(OCCN5CCN(C)C(=O)[C@H]5C)cc4)CC3)nn12 [AZD5153] (first compound max 10 µM, 7x7, partner max 1 µM), the Bliss excess in assay [1] is -0.0681; in assay [2], -0.0587; in [3], -0.0637; with LOXIMVI (Melanoma), -0.0792; in assay [4] it was -0.0771; in assay [5] it was -0.0066. Also, the Bliss excess in assay [6] was 0.0021; in assay [7] it was -0.0516; in assay [8], -0.0066; in the assay with MPP-89 (Mesothelioma), -0.0489; with GAMG (Glioblastoma) it was -0.002.

For the compound `Cc1c2c(nn1C)CSCc1cc(n(C)n1)CSc1cc(c3ccccc3c1)OCCCc1c(C(=O)O)n(C)c3c-2c(Cl)ccc13` [AZD5991] + Cc1cc2ncnn2cc1Nc1ncc2c(n1)n(C1CCOCC1)c(=O)n2C [AZD7648] (first compound max 1 µM, 7x7, partner max 10 µM), the Bliss excess in assay [9] was -0.0059; in assay [10], 0.0455; in assay [11], -0.0036; in [1], 0.0066; in assay [2], -0.0453; in assay [3], -0.032. For the same compound, the Bliss excess in the assay with LOXIMVI (Melanoma) was 0.0193; in [4] it was -0.0078; in [12], 0.0021; in assay [5], -0.0536; in assay [6], -0.0209; in assay [13], -0.0322. For the same compound, the Bliss excess in assay [7] was -0.0144; in [14], -0.0498; in assay [15], 0.0101; in [16] it was -0.0896; in [8] it was 0.0284; with MPP-89 (Mesothelioma) it was 0.0158. Moreover, the Bliss excess in the assay with GAMG (Glioblastoma) is -0.0321.

`O=C(c1cc(Cc2n[nH]c(=O)c3ccccc23)ccc1F)N1CCN(C(=O)C2CC2)CC1` [Olaparib] + CN(CC[C@H](CSC1=CC=CC=C1)NC2=C(C=C(C=C2)S(=O)(=O)NC(=O)C3=CC=C(C=C3)N4CCC(CC4)[C@H](C5=CC=CC=C5C6=CC=C(C=C6)Cl)O)S(=O)(=O)C(F)(F)F)CCO [AZD4320] (first compound max 10 µM, 7x7, partner max 1 µM): the Bliss excess was 0.0096 in assay [1]; -0.0422 in assay [2]; -0.0518 in [3]; 0.0022 with LOXIMVI (Melanoma); -0.0318 in [4]; -0.0133 in [5]. Further, the Bliss excess in assay [6] is -0.0397; in assay [7], -0.0332; in assay [8], 0.0432; in the assay on MPP-89 (Mesothelioma), -0.0662; with GAMG (Glioblastoma), -0.034.

On to `CC1(C)CCC(CN2CCN(c3ccc(C(=O)NS(=O)(=O)c4ccc(NCC5CCOCC5)c([N+](=O)[O-])c4)c(Oc4cnc5[nH]ccc5c4)c3)CC2)=C(c2ccc(Cl)cc2)C1` [Venetoclax] + CS(=O)(=O)CCNCc1ccc(-c2ccc3ncnc(Nc4ccc(OCc5cccc(F)c5)c(Cl)c4)c3c2)o1 [Lapatinib] (first compound max 1 µM, 7x7, partner max 10 µM), for which the Bliss excess in [1] is -0.0101; in [2] it was -0.0572; in [3], -0.0803; in the assay with LOXIMVI (Melanoma), 0.007; in [4], -0.059; in [5] it was -0.0178. Besides, the Bliss excess in assay [6] was -0.0415; in assay [7] it was -0.0178; in assay [8], 0.0168; in the assay with MPP-89 (Mesothelioma) it was -0.0532; in the assay with GAMG (Glioblastoma), -0.0231.

On to `C[C@@H](Nc1cc(F)cc(F)c1)c1cc(C(=O)N(C)C)cc2c(=O)cc(N3CCOCC3)oc12` [AZD8186] + C1CN(CCC1(C(=O)N[C@@H](CCO)C2=CC=C(C=C2)Cl)N)C3=NC=NC4=C3C=CN4 [AZD5363] (first compound max 10 µM, 7x7, partner max 10 µM), for which the Bliss excess in [1] is -0.028; in assay [2], -0.0206; in [3], -0.0171; in the assay with LOXIMVI (Melanoma) it was -0.0495; in assay [4], -0.0226; in assay [5], -0.125. Moreover, the Bliss excess is -0.0408 in assay [6]; -0.0615 in assay [7]; -0.0549 in [8]; -0.0635 with MPP-89 (Mesothelioma); -0.0849 in the assay on GAMG (Glioblastoma).

As to `C[C@@H](Oc1cc(-c2cnn(C3CCNCC3)c2)cnc1N)c1c(Cl)ccc(F)c1Cl` [Crizotinib] + CC1=C(C(=CC=C1)Cl)NC(=O)C2=CN=C(S2)NC3=CC(=NC(=N3)C)N4CCN(CC4)CCO [Dasatinib] (first compound max 10 µM, 7x7, partner max 2 µM), the Bliss excess in assay [1] was 0.0321; in assay [2], 0.0569; in assay [3], -0.0274; in the assay with LOXIMVI (Melanoma), 0.0145; in [4], -0.0059; in [5], -0.0138. Besides, the Bliss excess in assay [6] was 0.031; in assay [7], 0.0429; in assay [8] it was 0.0279; with MPP-89 (Mesothelioma), 0.0389; in the assay on GAMG (Glioblastoma), 0.0164.

With `C=CCn1c(=O)c2cnc(Nc3ccc(N4CCN(C)CC4)cc3)nc2n1-c1cccc(C(C)(C)O)n1` [AZD1775] + C1CN(CCC1(C(=O)N[C@@H](CCO)C2=CC=C(C=C2)Cl)N)C3=NC=NC4=C3C=CN4 [Capivasertib] (first compound max 3 µM, partner max 3 µM), the Bliss excess is -0.0263 in assay [9]; -0.0138 in [10]; -0.0646 in [11]; -0.0508 in assay [1]; 0.0122 in [2]; 0.0764 in the assay with LOXIMVI (Melanoma). Besides, the Bliss excess was -0.0206 in assay [4]; -0.0168 in assay [12]; -0.144 in [5]; 0.0334 in [6]; -0.0111 in assay [7]; -0.14 in assay [14]. The Bliss excess in [15] was -0.0004; in assay [16], -0.0229; with MPP-89 (Mesothelioma) it was -0.0704; in the assay with GAMG (Glioblastoma), 0.0181.

Regarding `CS(=O)(=O)CCNCc1ccc(-c2ccc3ncnc(Nc4ccc(OCc5cccc(F)c5)c(Cl)c4)c3c2)o1` [Lapatinib] + Cn1cnc2c(F)c(Nc3ccc(Br)cc3Cl)c(C(=O)NOCCO)cc21 [Selumetinib] (first compound max 10 µM, 7x7, partner max 10 µM), the Bliss excess in [1] is -0.0253; in [2] it was -0.0601; in assay [3], 0.0208; with LOXIMVI (Melanoma) it was -0.0701; in assay [4] it was -0.049; in [5], -0.0496. The Bliss excess in assay [6] was -0.0077; in [7], -0.0268; in assay [8] it was -0.0169; in the assay on MPP-89 (Mesothelioma), -0.0065; in the assay on GAMG (Glioblastoma) it was -0.06.
